Reference: ChEMBL document CHEMBL2016562, “Optimization of Pharmacokinetics through Manipulation of Physicochemical Properties in a Series of HCV Inhibitors” (ACS Med Chem Lett, 2011)

Experiments:
[1] = Half life in Sprague-Dawley rat liver microsomes; format: ADME, Microsome
[2] = Mean residence time in Sprague-Dawley rat; format: ADME, organism-based; settings: in vivo
Hepatitis C virus = assay: Antiviral activity against HCV subtype 1b in replicon cells after 3 days by luciferase reporter gene assay; format: functional, Hepacivirus hominis; settings: genotype 1b, 72 h
[3] = Oral bioavailability in Sprague-Dawley rat after 30 mins; format: ADME, organism-based; settings: in vivo
[4] = Volume of distribution at steady state in Sprague-Dawley rat after 30 mins; format: ADME, organism-based; settings: in vivo, read-out: Vdss
[5] = Clearance in Sprague-Dawley rat after 30 mins; format: ADME, organism-based; settings: in vivo
[6] = Apparent permeability by PAMPA assay; format: ADME

COc1ccc(-c2ccc3nc(N[C@H](C)c4ccc(-n5cncn5)cc4)nc(NCC(F)(F)F)c3n2)cc1S(C)(=O)=O
half-life [1]: 5.85 h | MRT [2]: 2.6 h | EC50 (Hepatitis C virus): 2 nM | bioavailability [3]: 47%

FC(F)(F)CNc1nc(NCc2ccc(-n3cncn3)cc2)nc2ccc(-c3ccc(OC4CC4)nc3)nc12
half-life [1]: > 6.58 h | MRT [2]: 5.3 h | EC50 (Hepatitis C virus): 3 nM | bioavailability [3]: 59%

NS(=O)(=O)c1cc(Cl)cc(CNc2nc(NC3(C(F)(F)F)CC3)c3nc(-c4ccc(F)cc4)ccc3n2)c1
half-life [1]: > 6.58 h | MRT [2]: 11 h | Vd [4]: 4.3 L/kg | clearance [5]: 6.67 mL/min/kg | EC50 (Hepatitis C virus): 28 nM

C[C@@H](Nc1nc(NC2(C(F)(F)F)CC2)c2nc(-c3cccc(S(C)(=O)=O)c3)ccc2n1)c1ccc(-n2cncn2)cc1
half-life [1]: 3.92 h | MRT [2]: 3.5 h | EC50 (Hepatitis C virus): 4 nM | bioavailability [3]: 88%

COc1ccc(-c2ccc3nc(NCc4ccc(S(N)(=O)=O)cc4)nc(NCC(F)(F)F)c3n2)cc1S(C)(=O)=O
half-life [1]: > 6.58 h | MRT [2]: 0.8 h | EC50 (Hepatitis C virus): 1 nM | bioavailability [3]: 1%

NS(=O)(=O)c1cc(CNc2nc(NCC(F)(F)F)c3nc(-c4ccc(NC(=O)C5(C(F)(F)F)CC5)cc4)ccc3n2)cc(C(F)(F)F)c1
half-life [1]: > 6.58 h | Papp [6]: 0.09 ×10⁻⁶ cm/s | EC50 (Hepatitis C virus): 6 nM | bioavailability [3]: 39%

NS(=O)(=O)c1ccc(CNc2nc(NCC(F)(F)F)c3nc(-c4ccc(F)cc4)ccc3n2)cc1
half-life [1]: > 6.58 h | MRT [2]: 6.9 h | Vd [4]: 2.3 L/kg | clearance [5]: 5 mL/min/kg | EC50 (Hepatitis C virus): 16 nM | bioavailability [3]: 100%

NS(=O)(=O)c1ccc(CNc2nc(NCC(F)(F)F)c3nc(-c4ccc(NC(=O)C5CC5)cc4)ccc3n2)cc1
half-life [1]: 1.17 h | Papp [6]: 0.004 ×10⁻⁶ cm/s | EC50 (Hepatitis C virus): 3 nM | bioavailability [3]: 1%

CC1(Oc2nc(NCc3ccc(-n4cncn4)cc3)nc3ccc(-c4ccc(OC5CC5)nc4)nc23)CC1
half-life [1]: > 6.58 h | MRT [2]: 1.9 h | EC50 (Hepatitis C virus): 2 nM | bioavailability [3]: 100%

NS(=O)(=O)c1ccc(CNc2nc(NCC(F)(F)F)c3nc(-c4ccc(F)nc4)ccc3n2)cc1
half-life [1]: 4.63 h | MRT [2]: 4.9 h | Vd [4]: 1 L/kg | clearance [5]: 3.33 mL/min/kg | EC50 (Hepatitis C virus): 10 nM

N#CC1(Nc2nc(NCc3ccc(S(N)(=O)=O)cc3)nc3ccc(-c4ccc(F)nc4)nc23)CC1
half-life [1]: > 6.58 h | MRT [2]: 0.9 h | Vd [4]: 0.9 L/kg | clearance [5]: 15 mL/min/kg | EC50 (Hepatitis C virus): 5 nM

COc1ccc(-c2ccc3nc(NCc4ccc(S(N)(=O)=O)cc4)nc(NC4(C#N)CC4)c3n2)cn1
half-life [1]: 1.62 h | MRT [2]: 0.4 h | EC50 (Hepatitis C virus): 1 nM | bioavailability [3]: 2%

NS(=O)(=O)c1ccc(CNc2nc(NCC(F)(F)F)c3nc(-c4ccc(-n5cncn5)cc4)ccc3n2)cc1
half-life [1]: > 6.58 h | EC50 (Hepatitis C virus): 2 nM | bioavailability [3]: 4%
